Results reported in US9708314B2, “Heterocyclic amide compound” (NISSAN CHEMICAL INDUSTRIES, LTD., priority 2013, dated 2017).

Experiments:
Assay type in all cases: in vivo
[1] = test system: Cyperus difformis; experiment: Test Example 3: herbicidal effect by application to foliage (Wagner pot, water depth 0.1-0.5 cm); details: Nineteenth Table, application herbicide amount 320 g/ha; for E (herbicidal effect grade): application to foliage
Method in brief: (§1)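 Rice-field weeds and directly sown rice were grown 14 days in flooded alluvial soil (water depth 0.1–0.5 cm) at 25–30 °C in a greenhouse. An emulsion formulation diluted to the stated g/ha rate was sprayed onto stems and leaves. Effects were scored on a 0–5 scale (herbicidal ratio bands) three weeks after treatment.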

[2] = test system: Leptochloa chinensis; experiment: as above; details: Nineteenth Table, application herbicide amount 320 g/ha; for D (herbicidal effect grade): application to foliage
Method in brief: as §1

[3] = test system: Echinochloa crus-galli var. crus-galli; experiment: as above; details: Nineteenth Table, application herbicide amount 320 g/ha; for H (herbicidal effect grade): application to foliage
Method in brief: as §1

[4] = test system: Galium spurium; experiment: Test Example 4: herbicidal effect by application to foliage (diluvial soil, plastic box); details: for Q: Application herbicide amount 320 g/ha; for Q (Galium spurium) herbicidal effect: application to foliage, application herbicide amount 320 g/ha
Method in brief: (§2)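 Plants were grown in sterilized diluvial soil in a greenhouse at 25-30° C for 14 days, then sprayed on stems and leaves with water-diluted emulsion formulation at set rates in g/ha. Weed control and crop injury were scored 3 weeks after treatment on a 0-5 herbicidal-ratio scale, from 0 (≤5%) to 5 (≥90%).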

[5] = test system: Apera spica-venti.; experiment: as above; details: for L: Application herbicide amount 320 g/ha; for L (Apera spica-venti.) herbicidal effect: application to foliage, application herbicide amount 320 g/ha
Method in brief: as §2

[6] = test system: Digitaria ciliaris; experiment: as above; details: for F: Application herbicide amount 320 g/ha; for F (Digitaria ciliaris) herbicidal effect: application to foliage, application herbicide amount 320 g/ha
Method in brief: as §2

[7] = test system: Chenopodium album; experiment: as above; details: for O: Application herbicide amount 320 g/ha; for O (Chenopodium album) herbicidal effect: application to foliage, application herbicide amount 320 g/ha
Method in brief: as §2

[8] = test system: Lolium multiflorum Lam.; experiment: as above; details: for K: Application herbicide amount 320 g/ha; for K (Lolium multiflorum Lam.) herbicidal effect: application to foliage, application herbicide amount 320 g/ha
Method in brief: as §2

[9] = test system: Echinochloa crus-galli var. crus-galli; experiment: as above; details: for H: Application herbicide amount 320 g/ha; for H (Echinochloa crus-galli var. crus-galli) herbicidal effect: application to foliage, application herbicide amount 320 g/ha
Method in brief: as §2

[10] = test system: Avena fatua; experiment: as above; details: for I: Application herbicide amount 320 g/ha; for I (Avena fatua) herbicidal effect: application to foliage, application herbicide amount 320 g/ha
Method in brief: as §2

[11] = test system: Abutilon theophrasti; experiment: as above; details: for M: Application herbicide amount 320 g/ha; for M (Abutilon theophrasti) herbicidal effect: application to foliage, application herbicide amount 320 g/ha
Method in brief: as §2

[12] = test system: Veronica persica; experiment: as above; details: for R: Application herbicide amount 320 g/ha; for R (Veronica persica) herbicidal effect: application to foliage, application herbicide amount 320 g/ha
Method in brief: as §2

[13] = test system: Setaria viridis; experiment: as above; details: for G: Application herbicide amount 320 g/ha; for G (Setaria viridis) herbicidal effect: application to foliage, application herbicide amount 320 g/ha
Method in brief: as §2

[14] = test system: Alopecurus myosuroides; experiment: as above; details: for J: Application herbicide amount 320 g/ha; for J (Alopecurus myosuroides) herbicidal effect: application to foliage, application herbicide amount 320 g/ha
Method in brief: as §2

| Compound | E (herbicidal effect grade) [1] | D (herbicidal effect grade) [2] | H (herbicidal effect grade) [3] | Q [4] | L [5] | F [6] | E (Cyperus difformis) herbicidal ratio grade [1] | D (Leptochloa chinensis) herbicidal ratio grade [2] | H (Echinochloa crus-galli var. crus-galli) herbicidal ratio grade [3] | Q (Galium spurium) herbicidal effect [4] | L (Apera spica-venti.) herbicidal effect [5] | F (Digitaria ciliaris) herbicidal effect [6] | O (Chenopodium album) herbicidal effect [7] | K (Lolium multiflorum Lam.) herbicidal effect [8] | H (Echinochloa crus-galli var. crus-galli) herbicidal effect [9] | I (Avena fatua) herbicidal effect [10] | M (Abutilon theophrasti) herbicidal effect [11] | R (Veronica persica) herbicidal effect [12] | G (Setaria viridis) herbicidal effect [13] | J (Alopecurus myosuroides) herbicidal effect [14] | further results |
| --- | --- | --- | --- | --- | --- | --- | --- | --- | --- | --- | --- | --- | --- | --- | --- | --- | --- | --- | --- | --- | --- |
| Cc1cc(-c2nnc3c(C(=O)Nc4nnc(C)o4)ccc(C(F)(F)F)n23)n(C)n1 [1-056] | 5 (Herbicidal ratio of 90% or more (almost completely withered)) | 5 (Herbicidal ratio of 90% or more (almost completely withered)) | 5 (Herbicidal ratio of 90% or more (almost completely withered)) | 4 (Herbicidal ratio of 70% or more and less than 90%) | 3 (Herbicidal ratio of 40% or more and less than 70%) | 5 (Herbicidal ratio of 90% or more (almost completely withered)) |  |  |  |  |  |  |  |  |  |  |  |  |  |  | O [7]: 5 (Herbicidal ratio of 90% or more (almost completely withered)); K [8]: 2 (Herbicidal ratio of 20% or more and less than 40%); H [9]: 5 (Herbicidal ratio of 90% or more (almost completely withered)); I [10]: 3 (Herbicidal ratio of 40% or more and less than 70%); M [11]: 5 (Herbicidal ratio of 90% or more (almost completely withered)); R [12]: 5 (Herbicidal ratio of 90% or more (almost completely withered)); G [13]: 5 (Herbicidal ratio of 90% or more (almost completely withered)); J [14]: 2 (Herbicidal ratio of 20% or more and less than 40%) |
| CCC(C)Sc1nnc2c(C(=O)Nc3nnc(C)o3)ccc(C(F)(F)F)n12 (stereo not drawn) [1-094] | 4 (Herbicidal ratio of 70% or more and less than 90%) | 4 (Herbicidal ratio of 70% or more and less than 90%) | 5 (Herbicidal ratio of 90% or more (almost completely withered)) | 0 (Herbicidal ratio of 5% or less (almost no effect)) | 1 (Herbicidal ratio of 5% or more and less than 20%) | 5 (Herbicidal ratio of 90% or more (almost completely withered)) |  |  |  |  |  |  |  |  |  |  |  |  |  |  | O [7]: 5 (Herbicidal ratio of 90% or more (almost completely withered)); K [8]: 1 (Herbicidal ratio of 5% or more and less than 20%); H [9]: 5 (Herbicidal ratio of 90% or more (almost completely withered)); I [10]: 2 (Herbicidal ratio of 20% or more and less than 40%); M [11]: 4 (Herbicidal ratio of 70% or more and less than 90%); R [12]: 4 (Herbicidal ratio of 70% or more and less than 90%); G [13]: 4 (Herbicidal ratio of 70% or more and less than 90%); J [14]: 1 (Herbicidal ratio of 5% or more and less than 20%) |
| Cc1nnc(NC(=O)c2ccc(C(F)(F)F)n3c(CC(=O)O)nnc23)o1 [1-048] |  |  |  |  |  |  | 3 (Herbicidal ratio of 40% or more and less than 70%) | 4 (Herbicidal ratio of 70% or more and less than 90%) | 5 (Herbicidal ratio of 90% or more (almost completely withered)) | 3 (Herbicidal ratio of 40% or more and less than 70%) | 2 (Herbicidal ratio of 20% or more and less than 40%) | 5 (Herbicidal ratio of 90% or more (almost completely withered)) | 5 (Herbicidal ratio of 90% or more (almost completely withered)) | 1 (Herbicidal ratio of 5% or more and less than 20%) | 5 (Herbicidal ratio of 90% or more (almost completely withered)) | 2 (Herbicidal ratio of 20% or more and less than 40%) | 5 (Herbicidal ratio of 90% or more (almost completely withered)) | 4 (Herbicidal ratio of 70% or more and less than 90%) | 3 (Herbicidal ratio of 40% or more and less than 70%) | 1 (Herbicidal ratio of 5% or more and less than 20%) |  |
| Cc1nnc(NC(=O)c2ccc(C(F)(F)F)n3c(CSCC(F)(F)F)nnc23)o1 [1-031] |  |  |  |  |  |  | 3 (Herbicidal ratio of 40% or more and less than 70%) | 4 (Herbicidal ratio of 70% or more and less than 90%) | 5 (Herbicidal ratio of 90% or more (almost completely withered)) | 3 (Herbicidal ratio of 40% or more and less than 70%) | 1 (Herbicidal ratio of 5% or more and less than 20%) | 4 (Herbicidal ratio of 70% or more and less than 90%) | 5 (Herbicidal ratio of 90% or more (almost completely withered)) | 1 (Herbicidal ratio of 5% or more and less than 20%) | 5 (Herbicidal ratio of 90% or more (almost completely withered)) | 2 (Herbicidal ratio of 20% or more and less than 40%) | 5 (Herbicidal ratio of 90% or more (almost completely withered)) | 4 (Herbicidal ratio of 70% or more and less than 90%) | 4 (Herbicidal ratio of 70% or more and less than 90%) | 1 (Herbicidal ratio of 5% or more and less than 20%) |  |
| COc1ccccc1-c1nnc2c(C(=O)Nc3nnc(C)o3)ccc(C(F)(F)F)n12 [1-047] |  |  |  |  |  |  | 4 (Herbicidal ratio of 70% or more and less than 90%) | 5 (Herbicidal ratio of 90% or more (almost completely withered)) | 5 (Herbicidal ratio of 90% or more (almost completely withered)) | 2 (Herbicidal ratio of 20% or more and less than 40%) | 1 (Herbicidal ratio of 5% or more and less than 20%) | 4 (Herbicidal ratio of 70% or more and less than 90%) | 5 (Herbicidal ratio of 90% or more (almost completely withered)) | 0 (Herbicidal ratio of 5% or less (almost no effect)) | 5 (Herbicidal ratio of 90% or more (almost completely withered)) | 1 (Herbicidal ratio of 5% or more and less than 20%) | 5 (Herbicidal ratio of 90% or more (almost completely withered)) | 4 (Herbicidal ratio of 70% or more and less than 90%) | 4 (Herbicidal ratio of 70% or more and less than 90%) | 0 (Herbicidal ratio of 5% or less (almost no effect)) |  |
| COCc1nnc2c(C(=O)Nc3nnc(C)o3)ccc(C(F)(F)F)n12 [1-015] |  |  |  |  |  |  | 4 (Herbicidal ratio of 70% or more and less than 90%) | 5 (Herbicidal ratio of 90% or more (almost completely withered)) | 5 (Herbicidal ratio of 90% or more (almost completely withered)) | 3 (Herbicidal ratio of 40% or more and less than 70%) | 3 (Herbicidal ratio of 40% or more and less than 70%) | 4 (Herbicidal ratio of 70% or more and less than 90%) | 5 (Herbicidal ratio of 90% or more (almost completely withered)) | 1 (Herbicidal ratio of 5% or more and less than 20%) | 5 (Herbicidal ratio of 90% or more (almost completely withered)) | 3 (Herbicidal ratio of 40% or more and less than 70%) | 5 (Herbicidal ratio of 90% or more (almost completely withered)) | 5 (Herbicidal ratio of 90% or more (almost completely withered)) | 3 (Herbicidal ratio of 40% or more and less than 70%) | 1 (Herbicidal ratio of 5% or more and less than 20%) |  |
